According to patent US9808003B2, “Herbicidally active 2-(substituted-phenyl)-cyclopentane-1,3-dione compounds and derivatives thereof” (Syngenta Limited, priority 2013, dated 2017):

Tests used:
Assay type in all cases: in vivo
Spring Wheat “Teal” = assay: Test 1B glasshouse assay, post-emergence herbicidal activity against cereal crops; conditions: 14 DAA
Description: (§1) Biological Example 1B tests the herbicidal activity of“technical” compounds (i.e. compounds not previously formulated before the test), as the herbicides under test.
(§2) An “instant formulation”, known as the “IF50”, containing 50 g/liter (i.e. 5% w/v) of the “technical” (i.e. unformulated) active ingredient (i.e. the herbicide under test), is prepared by dissolving the active ingredient in a mixture of organic solvents and emulsifier, details of which are provided in the Table below.
(§3) This IF50 is mixed with a small, variable amount of acetone to aid dissolution, before addition of a 0.5% v/v aqueous solution of the adjuvant Adigor™ (an adjuvant containing rapeseed oil methyl ester, ethoxylated alcohols, and a mixture of heavy aromatic hydrocarbons, e.g. available from Syngenta), as the aqueous diluent, to form an aqueous spray solution which contains a predetermined concentration of the active ingredient (which varies depending on the application rate of the active ingredient to the plants) and 0.5% v/v of the adjuvant Adigor™. This aqueous spray solution is suitable for spraying onto plants.
(§4) Seeds of a variety of test species are sown in standard soil in pots. After cultivation for 14 days under controlled conditions in a glasshouse (at 22/16° C., day/night; 16 hours light; 65% humidity), the plants are sprayed post-emergence with the above-mentioned aqueous spray solution containing inter alia the “technical” active ingredient (i.e. the herbicide under test) and the adjuvant Adigor™.
(§5) The test plants are then grown on under controlled conditions in the glasshouse (at 22/16° C., day/night; 16 hours light; 65% humidity) and are watered twice daily. 14 days after application of the test herbicide, the test is evaluated visually for percentage phytotoxicity to the plant (where 100%=total damage to plant; 0%=no damage to plant).
(§6) More specifically, post-emergence herbicidal activity (phytotoxicity) data, on certain tested grassy monocotyledonous weeds (and/or plants of the type Gramineae) and cereal crops in the glasshouse, are measured 14 days after application of the herbicide (14 DAA), typically for inter alia one or more of the following application rates: • (a) a post-emergence application rate of 60 g/ha of the test herbicide with or without 50 g/ha of cloquintocet-mexyl safener, and • (b) a post-emergence application rate of 90 g/ha of the test herbicide with 50 g/ha of cloquintocet-mexyl safener, and • (c) a post-emergence application rate of 120 g/ha of the test herbicide with 50 g/ha of cloquintocet-mexyl safener.
(§7) The cloquintocet-mexyl, when used, is present in the formulation containing the herbicide under test dissolved in acetone plus IF50.
(§8) The range of herbicide application rates tested sometimes includes application rates other than those shown above, and the rates can vary depending on the herbicide under test.
(§9) Herbicidal activity (phytotoxicity) is evaluated visually, and an assessed percentage phytotoxicity score is given for each herbicidal application on each plant species (with 100%=total damage to plant; 0%=no damage to plant; the assessment is recorded in increments of 1%). Two replicates are made for each experiment, and the mean herbicidal activity (phytotoxicity) data is reported.

[1] = system: Spring Barley “Harrington”; assay: as above; conditions: for Post-emergence herbicidal activity against cereal crops, percentage phytotoxicity, Spring Barley “Harrington”: 14 DAA
Description: as §1, §2, §3, §4, §5, §6, §7, §8, §9

Winter Wheat “Hereward” = assay: as above; conditions: for Post-emergence herbicidal activity against cereal crops, percentage phytotoxicity, Winter Wheat “Hereward”: 14 DAA
Description: as §1, §2, §3, §4, §5, §6, §7, §8, §9

Winter Barley “Suzuka” = assay: as above; conditions: for Post-emergence herbicidal activity against cereal crops, percentage phytotoxicity, Winter Barley “Suzuka”: 14 DAA
Description: as §1, §2, §3, §4, §5, §6, §7, §8, §9

Setaria viridis (SETVI) = assay: Test 1B glasshouse assay, post-emergence herbicidal activity against grassy weeds; conditions: 14 DAA
Description: as §1, §2, §3, §4, §5, §6, §7, §8, §9
(§10) For compounds A34, A98, A99, A87, A100, A101, A89, A120, A120A, A120B, A23, A127, A128, A89, A112 and A113 the tested weeds were as follows: Avena fatua (AVEFA), Lolium multiflorum (LOLMU), Setaria viridis (SETVI), Poa annua (POAAN), Alopecurus myosuroides (ALOMY). All five of these are grassy monocotyledonous weeds. Except for SETVI, these are all “cool-season” grassy monocotyledonous weeds.

[2] = system: Lolium multiflorum (LOLMU); assay: as above; conditions: 14 DAA
Description: as §1, §2, §3, §4, §5, §6, §7, §8, §9, §10

Poa annua (POAAN) = assay: as above; conditions: 14 DAA
Description: as §1, §2, §3, §4, §5, §6, §7, §8, §9, §10

Avena fatua (AVEFA) = assay: as above; conditions: 14 DAA
Description: as §1, §2, §3, §4, §5, §6, §7, §8, §9, §10

[3] = system: Alopecurus myosuroides (ALOMY); assay: as above; conditions: 14 DAA
Description: as §1, §2, §3, §4, §5, §6, §7, §8, §9, §10

Spring Wheat “Freya” = assay: Test 1B glasshouse assay, post-emergence herbicidal activity against cereal crops
[4] = 30 g/ha herbicide, 50 g/ha cloquintocet-mexyl
[5] = 45 g/ha herbicide, 50 g/ha cloquintocet-mexyl
[6] = 60 g/ha herbicide, 0 g/ha cloquintocet-mexyl
[7] = 60 g/ha herbicide, 50 g/ha cloquintocet-mexyl
[8] = herbicide 30 g/ha, cloquintocet-mexyl 50 g/ha
[9] = herbicide 45 g/ha, cloquintocet-mexyl 50 g/ha
[10] = herbicide 60 g/ha, cloquintocet-mexyl 0 g/ha
[11] = herbicide 60 g/ha, cloquintocet-mexyl 50 g/ha

Compound	Post-emergence herbicidal activity, percentage phytotoxicity, SETVI (Setaria viridis (SETVI); [4]) [%]	Post-emergence herbicidal activity, percentage phytotoxicity, SETVI (Setaria viridis (SETVI); [5]) [%]	Post-emergence herbicidal activity, percentage phytotoxicity, SETVI (Setaria viridis (SETVI); [6]) [%]	Post-emergence herbicidal activity, percentage phytotoxicity, SETVI (Setaria viridis (SETVI); [7]) [%]	Post-emergence herbicidal activity, percentage phytotoxicity, LOLMU [2, 4] [%]	Post-emergence herbicidal activity, percentage phytotoxicity, LOLMU [2, 5] [%]	Post-emergence herbicidal activity, percentage phytotoxicity, LOLMU [2, 6] [%]	Post-emergence herbicidal activity, percentage phytotoxicity, LOLMU [2, 7] [%]	Post-emergence herbicidal activity, percentage phytotoxicity, POAAN (Poa annua (POAAN); [4]) [%]	Post-emergence herbicidal activity, percentage phytotoxicity, POAAN (Poa annua (POAAN); [5]) [%]	Post-emergence herbicidal activity, percentage phytotoxicity, POAAN (Poa annua (POAAN); [6]) [%]	Post-emergence herbicidal activity, percentage phytotoxicity, POAAN (Poa annua (POAAN); [7]) [%]	Post-emergence herbicidal activity, percentage phytotoxicity, AVEFA (Avena fatua (AVEFA); [4]) [%]	Post-emergence herbicidal activity, percentage phytotoxicity, AVEFA (Avena fatua (AVEFA); [5]) [%]	Post-emergence herbicidal activity, percentage phytotoxicity, AVEFA (Avena fatua (AVEFA); [6]) [%]	Post-emergence herbicidal activity, percentage phytotoxicity, AVEFA (Avena fatua (AVEFA); [7]) [%]	Post-emergence herbicidal activity, percentage phytotoxicity, ALOMY [3, 4] [%]	Post-emergence herbicidal activity, percentage phytotoxicity, ALOMY [3, 5] [%]	Post-emergence herbicidal activity, percentage phytotoxicity, ALOMY [3, 6] [%]	Post-emergence herbicidal activity, percentage phytotoxicity, ALOMY [3, 7] [%]	other results
CCc1cc(-n2cc(Cl)cn2)cc(C)c1C1C(=O)C[C@H](CCNC(=O)c2ccccn2)C1=O (stereo partly drawn) [Compound A101]	15	35	53	53	68	83	88	83	5	15	48	38	73	88	90	88	25	43	55	55	Post-emergence herbicidal activity against cereal crops, percentage phytotoxicity, Spring Wheat “Teal” (Spring Wheat “Teal”; [4]): 10%; Post-emergence herbicidal activity against cereal crops, percentage phytotoxicity, Spring Wheat “Teal” (Spring Wheat “Teal”; [5]): 13%; Post-emergence herbicidal activity against cereal crops, percentage phytotoxicity, Spring Wheat “Teal” (Spring Wheat “Teal”; [6]): 48%; Post-emergence herbicidal activity against cereal crops, percentage phytotoxicity, Spring Wheat “Teal” (Spring Wheat “Teal”; [7]): 18%; Post-emergence herbicidal activity against cereal crops, percentage phytotoxicity, Spring Barley “Harrington” [1, 4]: 18%; Post-emergence herbicidal activity against cereal crops, percentage phytotoxicity, Spring Barley “Harrington” [1, 5]: 18%; Post-emergence herbicidal activity against cereal crops, percentage phytotoxicity, Spring Barley “Harrington” [1, 6]: 48%; Post-emergence herbicidal activity against cereal crops, percentage phytotoxicity, Spring Barley “Harrington” [1, 7]: 23%; Post-emergence herbicidal activity against cereal crops, percentage phytotoxicity, Winter Wheat “Hereward” (Winter Wheat “Hereward”; [4]): 18%; Post-emergence herbicidal activity against cereal crops, percentage phytotoxicity, Winter Wheat “Hereward” (Winter Wheat “Hereward”; [5]): 23%; Post-emergence herbicidal activity against cereal crops, percentage phytotoxicity, Winter Wheat “Hereward” (Winter Wheat “Hereward”; [6]): 43%; Post-emergence herbicidal activity against cereal crops, percentage phytotoxicity, Winter Wheat “Hereward” (Winter Wheat “Hereward”; [7]): 38%; Post-emergence herbicidal activity against cereal crops, percentage phytotoxicity, Winter Barley “Suzuka” (Winter Barley “Suzuka”; [4]): 23%; Post-emergence herbicidal activity against cereal crops, percentage phytotoxicity, Winter Barley “Suzuka” (Winter Barley “Suzuka”; [5]): 23%; Post-emergence herbicidal activity against cereal crops, percentage phytotoxicity, Winter Barley “Suzuka” (Winter Barley “Suzuka”; [6]): 75%; Post-emergence herbicidal activity against cereal crops, percentage phytotoxicity, Winter Barley “Suzuka” (Winter Barley “Suzuka”; [7]): 40%
Cc1cc(C)c(C2C(=O)C[C@@H](CCNC(=O)c3cccc(F)n3)C2=O)c(C)c1 (stereo partly drawn) [Compound A112]	100	100	100	100	98	100	100	100	0	0	40	13	93	94	98	97	97	97	99	98	Percentage Phytotoxicity Spring Barley “Harrington” [1, 8]: 30%; Percentage Phytotoxicity Spring Barley “Harrington” [1, 9]: 45%; Percentage Phytotoxicity Spring Barley “Harrington” [1, 10]: 93%; Percentage Phytotoxicity Spring Barley “Harrington” [1, 11]: 73%; Percentage Phytotoxicity Winter Wheat “Hereward” (Winter Wheat “Hereward”; [8]): 33%; Percentage Phytotoxicity Winter Wheat “Hereward” (Winter Wheat “Hereward”; [9]): 40%; Percentage Phytotoxicity Winter Wheat “Hereward” (Winter Wheat “Hereward”; [10]): 85%; Percentage Phytotoxicity Winter Wheat “Hereward” (Winter Wheat “Hereward”; [11]): 50%; Percentage Phytotoxicity Winter Barley “Suzuka” (Winter Barley “Suzuka”; [8]): 18%; Percentage Phytotoxicity Winter Barley “Suzuka” (Winter Barley “Suzuka”; [9]): 30%; Percentage Phytotoxicity Winter Barley “Suzuka” (Winter Barley “Suzuka”; [10]): 88%; Percentage Phytotoxicity Winter Barley “Suzuka” (Winter Barley “Suzuka”; [11]): 53%; Percentage Phytotoxicity Spring Wheat “Freya” (Spring Wheat “Freya”; [8]): 25%; Percentage Phytotoxicity Spring Wheat “Freya” (Spring Wheat “Freya”; [9]): 33%; Percentage Phytotoxicity Spring Wheat “Freya” (Spring Wheat “Freya”; [10]): 75%; Percentage Phytotoxicity Spring Wheat “Freya” (Spring Wheat “Freya”; [11]): 50%
